# Results: article PMC9850094, “Chemical synthesis of a reported p47phox/p22phox inhibitor and characterization of its instability and irreproducible activity” (Frontiers in Pharmacology, 2023)
# Where no end group is shown, it is not given here. TAMRA = carboxytetramethylrhodamine label; Cy5 = cyanine 5 label
# T1: p47phox^SH3A−B (Homo sapiens, UniProt P14598)
# T1 sequence (P14598 151-286): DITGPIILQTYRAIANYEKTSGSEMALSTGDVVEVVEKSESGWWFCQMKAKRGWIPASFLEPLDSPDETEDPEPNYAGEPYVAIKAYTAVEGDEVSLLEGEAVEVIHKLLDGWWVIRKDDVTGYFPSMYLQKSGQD
# T2: p47phox^SH3A−B (human His-tagged p47phox^151−286) (Homo sapiens, UniProt P14598)
# T2 construct: human His-tagged p47phox^151−286
# T2 sequence (P14598 151-286): T1 sequence (P14598 151-286)
# T3: NOX2 (Homo sapiens, UniProt P04839)
# T3 construct: endogenous in cells
# T3 sequence (P04839 2-570 limits assumed): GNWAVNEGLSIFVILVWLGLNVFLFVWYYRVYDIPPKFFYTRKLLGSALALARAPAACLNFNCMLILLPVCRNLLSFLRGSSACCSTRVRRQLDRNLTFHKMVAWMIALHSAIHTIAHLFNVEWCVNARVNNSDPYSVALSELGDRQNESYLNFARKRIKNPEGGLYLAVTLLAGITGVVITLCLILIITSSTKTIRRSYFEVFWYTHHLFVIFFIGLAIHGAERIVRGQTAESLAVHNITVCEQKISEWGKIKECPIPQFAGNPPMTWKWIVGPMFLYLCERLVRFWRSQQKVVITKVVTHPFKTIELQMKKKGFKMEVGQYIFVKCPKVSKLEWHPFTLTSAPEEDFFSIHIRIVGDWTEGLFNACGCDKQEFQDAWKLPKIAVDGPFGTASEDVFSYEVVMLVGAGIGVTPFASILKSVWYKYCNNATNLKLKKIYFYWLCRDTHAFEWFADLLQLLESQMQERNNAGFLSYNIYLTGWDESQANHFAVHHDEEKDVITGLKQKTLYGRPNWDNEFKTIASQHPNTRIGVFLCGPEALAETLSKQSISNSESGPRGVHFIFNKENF
# T3 sequence (P13498 2-195 partner limits assumed): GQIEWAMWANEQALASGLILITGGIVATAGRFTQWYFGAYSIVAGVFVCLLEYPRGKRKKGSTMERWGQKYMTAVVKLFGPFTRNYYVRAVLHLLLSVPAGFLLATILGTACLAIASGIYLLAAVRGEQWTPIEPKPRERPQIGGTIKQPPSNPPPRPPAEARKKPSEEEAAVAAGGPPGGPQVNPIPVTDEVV
# T4: p47phox^SH3A-B (human His-tagged p47phox^151-286) (human, UniProt P14598 151-286)
# T4 chain: T1 sequence (P14598 151-286)
# B1: cyanine 5 (Cy5)-p22phox^149-162 (peptide)
# chain: Cy5-KQPPTNPPPRPPAE
# B2: carboxytetramethylrhodamine (TAMRA)-p22phox^151-162 (peptide)
# chain: {TAMRA}-PPTNPPPRPPAE
# Legend:
# p47phox^SH3A−B = target: T1, p47phox^SH3A−B; assay: Covalent binding assay (LC−MS); conditions: 15 min
# Procedure: LC−MS spectra were obtained using the same LC–MS system, solvents, and gradient as for the chemical stability assay, but here the LC–MS was installed with a Poroshell C18 reverse-phase column (Agilent, Poroshell, 300SB-C18, 2.1 × 75 mm). Injection volume was 10 µL and the protein eluted at 3.2 min.
# Mass source parameters: Ion polarity, positive mode; drying gas flow, 12 L/min at 250 °C; nebulizer, 35 psig; VCap, 3000 V; Fragmentor, 70 V; mass scan range, 100–2000 m/z. Mass peak deconvolution was carried as described in literature (Winkler, 2010) (https://www.bioprocess.org/esiprot/esiprot_form.php). (A) LC–MS […]
# corresponding to the theoretical MW of p47phox SH3A–B (17300.38 Da). (B) LC–MS data of 0.2 mg/mL […]
# 17300.3 Da and another (see red arrows) is a protein adduct with MW of 17421.9 ± 0.29 Da (ΔMW relative to […]
# p47phoxSH3A–B is 122 Da).
# MW of 17574.0 Da ± 0.23 Da (ΔMW relative to p47phoxSH3A–B is 274 Da corresponding to an ebselene-protein […]
# with p47phoxSH3A–B. Similar to a phenolic Mannich base, the reaction involves an LMH001-derived quinone methide intermediate that reacts with nucleophiles from the protein leading to a +122 Da protein adduct.
# (1 picture or pasted object on this page, not shown here)
# [1] = system: p47phox/p22phox interaction; parameters: method as in Smith et al., 2012; conditions: ref Smith et al., 2012; cited from earlier work
# [2] = target: T2, p47phox^SH3A−B (human His-tagged p47phox^151−286); assay: Fluorescence polarization (FP) competition assay; format: binding; conditions: for Ki: over 2–20 min
# Procedure: Synthesized compounds were then tested for their ability to inhibit the interaction between p47phox^SH3A−B and the fluorescent peptide probes in 1×HBST (2% DMSO). The non-fluorescent p22phox^151−162 peptide (Sequence: Ac-[…]-NH2) was used as a control. […] FP values were fitted to the equation Y = Bottom + (Top-Bottom)/{1 + 10^[(LogIC50-X)*HillSlope]}, where X is the logarithmic value of the compound concentration. Hereby, the IC50 value was obtained, which together with the K d value, probe and p47phox^SH3A−B concentrations was used to calculate the theoretical competitive inhibition constant, the K i value. […] Here, 5 and 8 µM of p47phox^SH3A−B concentration was used for Cy5-p22phox^149−162 and TAMRA-p22phox^151−162, respectively.
# [3] = Chemical stability assay (LC−MS); format: physicochemical
# Procedure: A binary solvent system of buffer A (H2O/acetonitrile (MeCN)/formic acid, 95:5:0.1 v/v%) to buffer B (MeCN/formic acid, 99.9:0.1 v/v%) and a flow rate of 1 mL/min was used. Injection volume was 5 µL. Total sample run time was 6 min, and the percentage of buffer B increases from 0% to 100% during 0.25–4.25 min, maintains at 100% until 5 min, then decreases to 0% at 5.10 min, and stays at 0% until 6 min.
# GST-p47phox^SH3A−B = system: GST-p47phox^SH3A−B; parameters: method as in Fan et al., 2022; conditions: GST-p47phox^SH3A−B / FITC-labelled p22phox^151-162 peptide, ref Fan et al., 2022, cited from earlier work
# NOX2 [4] = system: NOX2; parameters: method as in Fan et al., 2022; conditions: COS-phox cells activated by PMA; ref Fan et al., 2022; read-out: IC50, NOX2 superoxide inhibition; cited from earlier work
# [5] = parameters: method as in Fan et al., 2022; conditions: mice, iv injection; ref Fan et al., 2022; cited from earlier work
# SH3A−B domain of p47phox = target: SH3A−B domain of p47phox; parameters: method as in Garsi et al., 2022; conditions: ref Garsi et al., 2022; read-out: Kd (SPR); cited from earlier work
# NOX2 [6] = target: T3, NOX2; assay: NOX2 cell-based assay (WST1, PMA-activated PLB-985 cells); conditions: PMA-stimulated differentiated PLB-985 cells, superoxide (WST1)
# Procedure: The assay measures extracellular superoxide generated by PMA-activated NOX2 in PLB-985 cells using the cell-impermeable tetrazolium salt WST1 as probe ([Tan and Berridge, 2000]). […] NOX2 was activated by addition of phorbol-12-myristate-13-acetate PMA (10 nM final). Absorbance (OD440) was measured with a Spectramax Paradigm reader (Molecular Devices) for 3 h. To graph the data, the rate of superoxide was calculated for the first hour.
# [7] = target: T4, p47phox^SH3A-B (human His-tagged …); assay: FP; 1×HBST
# [8] = target: T4, p47phox^SH3A-B (human His-tagged …); assay: FP; in water
# [9] = tested as isolated compounds, 1×HBST, Cy5 or TAMRA probe, 2 or 20 min
molecule,measurement,setting,value
O=c1c2ccccc2[se]n1-c1ccccc1 [Ebselen],Protein mass increase (ΔMW relative to p47phox^SH3A–B),"p47phox^SH3A−B; 200 µM compound, 0.2 mg/mL p47phox^SH3A−B, HBST",274 Da
same,Conversion of p47phox^SH3A−B to molecular adduct,"p47phox^SH3A−B; 200 µM, HBST",fully converted
same,IC50,[1],0.3 µM
O=C(OCc1cccc(O)c1O)c1ccc(O)c(CO)c1 [LMH001],Activity in the FP assay,"[2]; up to 400 µM, 1×HBST, Cy5 or TAMRA probe, 2 or 20 min incubation",did not show any activity
same,Activity in the FP assay in pure water,"[2]; water instead of 1×HBST, Cy5 or TAMRA probe, 2 or 20 min",did not result in any measurable activity
same,Degradation in the HBST buffer as function of pH,"[3]; 1×HBST pH 6 to 8, 30 min",increased with pH
same,LMH001 remaining,"[3]; H2O, 5 min",86%
same,LMH001 remaining,"[3]; H2O, 30 min",76%
same,LMH001 remaining,"[3]; HBST, 5 min, 100 µM, relative to MeCN 5 min",13%
same,LMH001 remaining,"[3]; HBST, 30 min",3%
same,p47phox^SH3A−B modified,"p47phox^SH3A−B; 200 µM (17-fold molar excess), HBST",20%–30%
same,Conversion of p47phox^SH3A−B to adduct,"p47phox^SH3A−B; 200 µM, water",negligible conversion
same,IC50,GST-p47phox^SH3A−B,0.149 µM
same,Ki,GST-p47phox^SH3A−B; read-out: Ki (FP),0.054 µM
same,half-life,[5],2.52 min
N=C(N)NCCC[C@@H](CCCCC1CC1)NC(=O)[C@@H]1CCCN1C(=O)[C@@H]1CCCN1C(=O)[C@@H]1CCCN1C(=O)CCC(=O)Nc1cccc(-c2ccc(Cl)c(Cl)c2)c1 [compound 2],Kd,SH3A−B domain of p47phox,0.043 µM
O=C(O)c1ccc(O)c(CO)c1 [compound 13],Activity in the FP assay,[2]; [9],inactive
same,"IC50, NOX2 inhibition",NOX2 [6],no activity
OCc1cccc(O)c1O [compound 15],Activity in the FP assay,[2]; [9],inactive
same,IC50,"NOX2 [6]; read-out: IC50, NOX2 inhibition",63 µM
Ac-PPTNPPPRPPAE-NH2 [p22phox^151–162],Ki,"[2]; 1×HBST, probe Cy5-p22phox^149–162",14 to 22 µM
same,Ki,"[2]; 1×HBST, probe TAMRA-p22phox^151–162",17 to 31 µM
same,Ki,"[2]; water, probe Cy5-p22phox^149–162",170 to 220 µM
same,Ki,"[2]; water, probe TAMRA-p22phox^151–162",140 to 155 µM
B1,Kd,[7],1.9 µM
same,Kd,[8],12 µM
B2,Kd,[7],7 µM
same,Kd,[8],40 µM
